The molecules below were run against T1, IL-7Rα subunit (Homo sapiens, UniProt P16871) (assay: competitive binding assay, specific binding site on the IL-7Rα subunit). Conditions: specific binding site distinct from that of IL-7.
T1 construct: human IL-7Rα (CD127 protein, Fc Tag) (21-236); Fc; purchased ACRObiosystems, Inc. ILB-H5258
T1 sequence (P16871 21-236): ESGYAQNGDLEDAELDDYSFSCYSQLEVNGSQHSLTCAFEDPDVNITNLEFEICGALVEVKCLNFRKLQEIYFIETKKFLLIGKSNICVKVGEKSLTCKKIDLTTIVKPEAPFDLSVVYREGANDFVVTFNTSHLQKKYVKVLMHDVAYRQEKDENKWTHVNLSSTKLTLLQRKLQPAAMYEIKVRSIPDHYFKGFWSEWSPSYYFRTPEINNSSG

IC50, < 10 µM:
CC[C@H](C)[C@@H]1NC(=O)[C@H](CCC(=O)O)NC(=O)[C@H](C)NC(=O)[C@@H](NC(=O)[C@H](Cc2ccc(O)cc2)NC(=O)[C@@H](N)C(C)C)CSSC[C@@H](C(=O)N[C@@H](CCCNC(=N)N)C(=O)N[C@@H](CCC(N)=O)C(=O)O)NC(=O)[C@H](C(C)C)NC(=O)[C@H](CCCNC(=N)N)NC(=O)[C@H](Cc2ccc(O)cc2)NC(=O)[C@H](CCC(=O)O)NC(=O)CNC1=O [SEQ ID NO: 2043, V Y C A E I G E Y R V C R Q]
CC[C@H](C)[C@@H]1NC(=O)[C@@H](NC(=O)[C@@H](N)CCC(N)=O)CSSC[C@@H](C(=O)N[C@H](C(=O)O)C(C)C)NC(=O)[C@H](CO)NC(=O)[C@H](CC(C)C)NC(=O)[C@H](CC(C)C)NC(=O)[C@H]([C@@H](C)O)NC(=O)[C@H](CCC(=O)O)NC(=O)[C@H]([C@@H](C)CC)NC(=O)[C@H](CC(=O)O)NC(=O)[C@H](Cc2c[nH]c3ccccc23)NC(=O)[C@H](Cc2c[nH]cn2)NC1=O [SEQ ID NO: 2159, Q C I H W D I E T L L S C V]
CC(C)C[C@@H]1NC(=O)[C@H](CO)NC(=O)CNC(=O)[C@@H]2CCCN2C(=O)[C@H](CC(=O)O)NC(=O)[C@H](CC(C)C)NC(=O)[C@H]([C@@H](C)O)NC(=O)[C@@H](NC(=O)[C@H](Cc2c[nH]c3ccccc23)NC(=O)[C@@H]2CCCN2C(=O)[C@@H](N)C(C)C)CSSC[C@@H](C(=O)N[C@@H](C)C(=O)N[C@@H](Cc2c[nH]c3ccccc23)C(=O)N[C@@H](Cc2ccccc2)C(=O)O)NC(=O)[C@H](CCC(N)=O)NC1=O [SEQ ID NO: 2313, V P W C T L D P G S L Q C A W F]

What follows are molecules tested against T2, IL-2Rβ subunit (Homo sapiens, UniProt P14784) (assay: competitive binding assay, specific binding site on the IL-2Rβ subunit). Conditions: not given.
T2 construct: human IL-2Rβ (CD122 protein, Fc Tag) (27-239); Fc; purchased ACRObiosystems, Inc. ILB-H5253
T2 sequence (P14784 27-239): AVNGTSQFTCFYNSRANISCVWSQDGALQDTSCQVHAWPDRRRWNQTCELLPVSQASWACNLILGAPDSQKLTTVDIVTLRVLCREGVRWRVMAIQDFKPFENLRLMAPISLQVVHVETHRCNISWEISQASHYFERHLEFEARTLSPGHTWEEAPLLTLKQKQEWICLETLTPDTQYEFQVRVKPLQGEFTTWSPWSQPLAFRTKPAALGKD

IC50, < 10 µM:
CC[C@H](C)[C@@H]1NC(=O)[C@H](CCCNC(=N)N)NC(=O)[C@@H](NC(=O)[C@H](CC(=O)O)NC(=O)[C@@H](N)Cc2ccc(O)cc2)CSSC[C@@H](C(=O)N[C@@H](CC(=O)O)C(=O)N[C@@H](CC(C)C)C(=O)O)NC(=O)[C@H](CC(C)C)NC(=O)[C@H](CCC(=O)O)NC(=O)CNC(=O)[C@H](C(C)C)NC(=O)[C@H](CCC(N)=O)NC(=O)[C@H](C)NC1=O [SEQ ID NO: 154, Y D C R I A Q V G E L C D L]
CC[C@H](C)[C@H](NC(=O)[C@H](CCC(N)=O)NC(=O)[C@@H]1CSSC[C@H](NC(=O)[C@H](CCSC)NC(=O)[C@@H](N)CC(N)=O)C(=O)N[C@@H](CC(C)C)C(=O)N[C@@H](C(C)C)C(=O)NCC(=O)N[C@@H](CC(=O)O)C(=O)N[C@@H](Cc2ccc(O)cc2)C(=O)N[C@@H](Cc2c[nH]c3ccccc23)C(=O)N2CCC[C@H]2C(=O)N[C@@H](CO)C(=O)N1)C(=O)O [SEQ ID NO: 180, N M C L V G D Y W P S C Q I]
CSCC[C@H](NC(=O)[C@H](CC(C)C)NC(=O)[C@H](CC(C)C)NC(=O)[C@H](CC(=O)O)NC(=O)CNC(=O)[C@@H](NC(=O)[C@H](CC(=O)O)NC(=O)CNC(=O)[C@H](Cc1c[nH]c2ccccc12)NC(=O)[C@@H](N)CCCNC(=N)N)C(C)C)C(=O)N1CCC[C@H]1C(=O)N[C@@H](CC(C)C)C(=O)O [SEQ ID NO: 209, R W G D V G D L L M P L]
